From patent US11339119B2, “Crystal form and amorphous form of dezocine analogue hydrochloride” (Shandong Danhong Pharmaceutical Co., Ltd., priority 2017, dated 2022)
≈ marks a conversion by molar mass, not a printed value. Where “and” joins values, the source holds several entries; their conditions need not be identical. Equal values may be shown once. Entries after “also recorded” stand apart in the source; their conditions may differ.

Tests used:
[1] = Solid stability test of amorphous form (HPLC content and total impurity); assay type: physicochemical
Experimental: 1.5 High Performance Liquid Chromatograph (HPLC) • Instrument model: Agilent 1200 high performance liquid chromatograph • The analysis method is as follows:
Stability of amorphous form sample under conditions of high temperature, high humidity (40° C./RH 75.0%, closed) and acceleration.
About 1.4 g of sample was put into a double-layer LDPE bag, each layer of LDPE bag was fastened and sealed respectively, then the LDPE bag and a medicinal desiccant were put into an aluminum-foil bag and sealed by heating, under conditions of high temperature and high humidity, a sample was taken on the 30th day for detection, and a detection result was compared with an initial detection result on the 0th day.

[2] = Equilibrium solubility of amorphous form sample in different pH media; assay type: physicochemical; conditions: for solubility at 24 h: thermodynamic from solid
Experimental: An equilibrium solubility of an amorphous form sample in pH 1.0/2.0 (hydrochloric acid solution), pH 3.8/4.5/5.5 (acetate buffer solution), pH 6.0/6.8/7.4 (phosphate buffer solution) and water was detected (prepared according to the Technical Guiding Principles for Dissolution Rate Test of Ordinary Oral Solid Preparations of Chinese Pharmacopoeia).
5 mL of different media (pH 1.0, pH 2.0, pH 3.8, pH 4.5, pH 5.5, pH 6.0, pH 6.8 and pH 7.4 buffer solutions and pure water) were respectively added into nine 8 mL glass bottles, and an appropriate amount of amorphous form sample was added respectively to make the mixture a suspension. Magnetic stirring bars were added into the sample above, which are placed on a magnetic stirrer to stir (at a temperature of 37° C.).
The sample was centrifuged after 24 h, and a supernatant was taken from an upper sample to determine a concentration thereof by HPLC and a pH value thereof (results shown in Table 4).

[3] = Hygroscopicity test of amorphous form sample; assay type: physicochemical; conditions: 25° C., 24 h
Experimental: A hygroscopicity of an amorphous form sample was detected. (The hygroscopicity of the compound was determined according to the method in the General Rules of the Chinese Pharmacopoeia (2015 Version) Volume IV).
Three dry glass weighing bottles with stoppers were weighed, the results of which were recorded as m1 1, m1 2 and m1 3. An appropriate amount of crude drug sample was spread in the weighed weighing bottles (the sample has a thickness of about 1 mm), then accurately weighed and recorded as m2 1, m2 2 and m2 3. The weighing bottles were open and placed together with bottle caps in a dryer with saturated ammonium chloride solution at a lower part, the dryer was covered, then the dryer was placed in a thermostat at 25° C. for 24 h. After being placed for 24 h, the weighing bottles were covered, then taken out for accurate weighing, the results of which were recorded as m3 1, m3 2 and m3 3. Weight increase by hygroscopicity was calculated, and the calculation formula was as follows: weight increase percentage=100%×(m3−m2)/(m2−m1).

[4] = Solid stability test of crystal form (XRPD); assay type: physicochemical
Experimental: According to the Guiding Principles for Stability Experiment of Crude Drugs and Preparations (General Rules 9001 of Chinese Pharmacopoeia (2015 Version) Volume IV), a stability of a compound placed under conditions of high temperature (60° C., open), high humidity (RT/92.5% RH, open) and illumination (50001×, closed) for 5 days and 10 days were investigated.
An appropriate amount of a crystal form sample of a compound represented by formula (I) was placed at a bottom of a glass sample bottle and spread into a thin layer. The sample placed under the conditions of high temperature and high humidity was sealed with aluminum-foil paper, and small holes were punched in the aluminum-foil paper to ensure that the sample could be fully contacted with ambient air. The sample placed under the condition of illumination (50001×) was sealed with a bottle cap and further sealed with a sealing film, the sample was sealed and placed at a room temperature, and XRPD detection was performed on the 5th day and the 10th day.

[5] = Pharmacokinetic study, intramuscular injection in mouse; assay type: in vivo, SD mouse; conditions: sesame oil suspension
Experimental: Through the experiment of drug metabolism in a mouse, the metabolism of the compound in the mouse is evaluated by taking Cmax, t1/2, AUC, MRT and B/P ratio in vivo as indexes.
A test compound was mixed with an appropriate amount of sesame oil, and the mixture was vortexed and ultrasonically processed to obtain an even suspension of 25 μmol/mL. A SD mouse aged 6 weeks to 9 weeks (Shanghai SLAC Laboratory Animal Co., Ltd) was selected and intramuscularly injected with a suspension of the test compound at a dose of 20 μmol/kg or 40 μmol/kg. Whole blood of a certain period of time was collected, and a precipitant (acetonitrile, methanol and internal standard for analysis) was added and centrifuged. A supernatant solution was analyzed for a drug concentration by a LC-MS/MS method (if the test drug was the prodrug, concentrations of the prodrug and the hydrolyzed parent drug were analyzed simultaneously), and pharmacokinetic parameters were calculated by Phoenix WinNonlin software (Pharsight Company of the United States).

[6] = High temperature and high humidity (40° C./RH 75.0%, close), 30 days

Q: With C[C@@]12CCCCC[C@@H](Cc3c(F)cc(OC(=O)CCCCCCCCC(=O)Oc4cc(F)c5c(c4)[C@@]4(C)CCCCC[C@@H](C5)[C@@H]4N)cc31)[C@@H]2N [listing 1 of 2 here] as the compound, how does the Content ([1]; 0 day) read?
A: 99.3%

Q: What about the Total impurity ([1]; 0 day) of the same compound?
A: 1.56%

Q: And the Content [1, 6]?
A: 97.8%

Q: And the Total impurity [1, 6]?
A: 1.96%

Q: What about the “Solid stability of amorphous form (conclusion in words)” value ([1]; high temperature, high humidity and sealing, 30 days) of the same compound?
A: relatively stable

Q: What about the solubility at 24 h ([2]; 0.01 N HCl, simulated gastric fluid, 0.01 NHCl, final pH 2.01, 37° C., 24 h) of the same compound?
A: 1630 µg/mL (≈ 2.35 mM)

Q: What about the solubility at 24 h ([2]; 0.1 N HCl, simulated gastric fluid, 0.1 NHCl, final pH 1.02, 37° C., 24 h) of the same compound?
A: 398 µg/mL (≈ 0.574 mM)

Q: What about the solubility at 24 h ([2]; aqueous buffer, pH 3.8 buffer solution (acetate), final pH 3.68, 37° C., 24 h) of the same compound?
A: 15100 µg/mL (≈ 21.8 mM)

Q: And the solubility at 24 h ([2]; aqueous buffer, pH 4.5 buffer solution (acetate), final pH 4.48, 37° C., 24 h)?
A: 19600 µg/mL (≈ 28.3 mM)

Q: What about the solubility at 24 h ([2]; aqueous buffer, pH 5.5 buffer solution (acetate), final pH 5.25, 37° C., 24 h) of the same compound?
A: 18700 µg/mL (≈ 27 mM)

Q: And the solubility at 24 h ([2]; aqueous buffer, pH 6.0 buffer solution (phosphate), final pH 5.89, 37° C., 24 h)?
A: 13 µg/mL (≈ 0.0188 mM)

Q: What about the solubility at 24 h ([2]; aqueous buffer, pH 6.8 buffer solution (phosphate), final pH 6.75, 37° C., 24 h) of the same compound?
A: 3 µg/mL (≈ 0.00433 mM)

Q: And the “Solubility (in words)” value ([2]; hydrochloric acid solution, acetate buffer solution and water)?
A: easily soluble

Q: What about the Solubility ([2]; pH 7.4 buffer solution (phosphate), final pH 7.20, 37° C., 24 h, LOQ = 0.0003 mg/mL) of the same compound?
A: <LOQ

Q: What about the “Solubility (in words)” value ([2]; phosphate buffer solution) of the same compound?
A: slightly soluble or insoluble

Q: And the solubility at 24 h ([2]; pure water, Water, final pH 4.28, 37° C., 24 h)?
A: 13500 µg/mL (≈ 19.5 mM)

Q: What about the “Hygroscopicity (in words)” value [3] of the same compound?
A: had hygroscopicity

Q: What about the “Weight increase percentage, average value” ([3]; average of three samples, over saturated ammonium chloride solution) of the same compound?
A: 5.24%

Q: And the Weight increase percentage ([3]; single samples 1-3, over saturated ammonium chloride solution)?
A: 5.790% and 5.215% and 4.714%

Q: For C[C@@]12CCCCC[C@@H](Cc3c(F)cc(OC(=O)CCCCCCCCC(=O)Oc4cc(F)c5c(c4)[C@@]4(C)CCCCC[C@@H](C5)[C@@H]4N)cc31)[C@@H]2N [listing 2 of 2 here], which “Crystal form (MOD)” value ([4]; 0 day, initial) is on record?
A: Crystal form of compound represented

Q: And the “Crystal form (MOD)” value ([4]; High humidity (RT/RH 92.5%, open), 5 days)?
A: Crystal form of compound represented

Q: And the “Crystal form (MOD)” value ([4]; High humidity (RT/RH 92.5%, open), 10 days)?
A: Crystal form of compound represented

Q: What about the “Crystal form (MOD)” value ([4]; High temperature (60° C., open), 5 days) of the same compound?
A: Crystal form of compound represented

Q: And the “Crystal form (MOD)” value ([4]; High temperature (60° C., open), 10 days)?
A: Crystal form of compound represented

Q: And the “Crystal form (MOD)” value ([4]; Illumination (5000lx, closed), 5 days)?
A: Crystal form of compound represented

Q: And the “Crystal form (MOD)” value ([4]; Illumination (5000lx, closed), 10 days)?
A: Crystal form of compound represented

Q: What about the “Solid stability of crystal form (conclusion in words)” value ([4]; high temperature, high humidity and illumination, 5 and 10 days vs 0 day) of the same compound?
A: did not change; also recorded: stable under the conditions of high temperature, high humidity and illumination without any change

Q: Which “Release and hydrolysis in vivo (in words)” value [5] does the source give for C[C@@]12CCCCC[C@@H](Cc3c(F)cc(OC(=O)CCCCCCCCC(=O)Oc4cc(F)c5c(c4)[C@@]4(C)CCCCC[C@@H](C5)[C@@H]4N)cc31)[C@@H]2N [Compound B] here?
A: slowly released in vivo after intramuscular injection and quickly hydrolyzed into the parent drug compound A
